# Assay results taken from patent publication US20110092526A1, “Adamantyl Iminocarbonyl-Substituted Pyrimidines As Inhibitors Of 11-Beta-HSD1 826” (ASTRAZENECA AB, priority 2009, published 2011).
# Biological target: T1, human 11βHSD1 enzyme (Homo sapiens, UniProt P28845)
# T1 construct: N terminal 6-His tagged full length human 11βHSD1 enzyme; 6-His (N); made in house
# Test: 11βHSD1 competitive HTRF assay (conversion of cortisone to cortisol)
# Format: biochemical
# Conditions: recombinant N terminal 6-His tagged full length human 11βHSD1; cortisone 160 nM; 25 minutes at 37° C.; pH 7.5
# Method: The evaluation of compounds described herein was carried out using a baculovirus expressed N terminal 6-His tagged full length human 11βHSD1 enzyme (*1). The enzyme was purified from a detergent solublised cell lysate, using a copper chelate column. Inhibitors of 11βHSD1 reduce the conversion of cortisone to cortisol, which is identified by an increase in signal, in the above assay.
# Compounds to be tested were dissolved in dimethyl sulphoxide (DMSO) to 10 mM and diluted further in assay buffer containing 1% DMSO to 10 fold the final assay concentration. Diluted compounds were then plated into black 384 well plates (Matrix, Hudson N.H., USA).
# The assay plates were incubated for 25 minutes at 37° C. after which time the reaction was stopped by the addition of 10 μl of 0.5 mM glycerrhetinic acid plus conjugated cortisol (D2**). 10 μl of anti-cortisol Cryptate was then added and the plates sealed and incubated for 6 hours at room temperature. Fluorescence at 665 nm and 620 nm was measured and the 665 nm:620 nm ratio calculated using an Envision plate reader.
# **D2 is a cortisol tracer which competes with native cortisol produced in the reaction for the monoclonal anti-cortisol antibody labelled with europium-cryptate. The antibody will fluoresce when it is bound to the cortisol tracer complex (D2 labelled with cortisol and glycyrrhetinic acid coupled together). Thus providing an accurate measure of 11beta-HSD1 activity.
# T1 sequence (P28845 whole entry): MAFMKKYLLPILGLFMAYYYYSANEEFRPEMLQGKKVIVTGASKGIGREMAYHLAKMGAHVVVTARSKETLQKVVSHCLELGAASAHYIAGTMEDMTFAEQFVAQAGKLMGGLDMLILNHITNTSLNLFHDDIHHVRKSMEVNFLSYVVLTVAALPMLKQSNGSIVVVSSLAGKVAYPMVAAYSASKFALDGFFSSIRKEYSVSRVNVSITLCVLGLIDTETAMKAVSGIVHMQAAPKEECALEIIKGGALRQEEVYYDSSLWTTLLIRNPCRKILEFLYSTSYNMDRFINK
row,Structure (SMILES),IC50
1,"O=C(N[C@H]1C2CC3CC1C[C@@](O)(C3)C2)c1cnc(N[C@H]2CCOC2)nc1C(F)(F)F [Example 23, N-(5-hydroxy-2-adamantyl)-2-[[(3S)-oxolan-3-yl]amino]-4-(trifluoromethyl)pyrimidine-5-carboxamide]",95 nM
2,"CN1CC(Nc2ncc(C(=O)N[C@H]3C4CC5CC3C[C@@](O)(C5)C4)c(C3CCCC3)n2)CC1=O (stereo partly drawn) [Example 16, 4-cyclopentyl-N-(5-hydroxy-2-adamantyl)-2-[(1-methyl-5-oxo-pyrrolidin-3-yl)amino]pyrimidine-5-carboxamide]",20 nM
3,"CC(C)c1nc(N[C@@H]2CCOC2)ncc1C(=O)N[C@H]1C2CC3CC1C[C@@](O)(C3)C2 [Example 21, N-(5-hydroxy-2-adamantyl)-4-isopropyl-2-[[(3R)-tetrahydrofuran-3-yl]amino]pyrimidine-5-carboxamide]",42 nM
4,"CCCOc1nc(N[C@H]2CCOC2)ncc1C(=O)N[C@H]1C2CC3CC1C[C@@](O)(C3)C2 [Example 34, N-(5-hydroxy-2-adamantyl)-4-propoxy-2-[[(3S)-tetrahydrofuran-3-yl]amino]pyrimidine-5-carboxamide]",21 nM
5,"O=C(N[C@H]1C2CC3CC1C[C@@](O)(C3)C2)c1cnc(NC2CCS(=O)(=O)C2)nc1C1CCCC1 (stereo partly drawn) [Example 5, 4-cyclopentyl-2-[(1,1-dioxothiolan-3-yl)amino]-N-(5-hydroxy-2-adamantyl)pyrimidine-5-carboxamide]",24 nM
6,"CCOc1nc(N[C@@H]2CCOC2)ncc1C(=O)N[C@H]1C2CC3CC1C[C@@](O)(C3)C2 [Example 24, 4-Ethoxy-N-(5-hydroxy-2-adamantyl)-2-[[(3R)-tetrahydrofuran-3-yl]amino]pyrimidine-5-carboxamide]",45 nM
7,"CS(=O)(=O)[C@]12CC3CC(C1)[C@H](NC(=O)c1cnc(N[C@H]4CCOC4)nc1C1CCCC1)C(C3)C2 [Example 45, 4-cyclopentyl-N-(5-methylsulfonyl-2-adamantyl)-2-[[(3S)-tetrahydrofuran-3-yl]amino]pyrimidine-5-carboxamide]",273 nM
8,"O=C(N[C@H]1C2CC3CC1C[C@@](O)(C3)C2)c1cnc(N[C@H]2CCOC2)nc1N1CCCC1 [Example 38, N-(5-hydroxy-2-adamantyl)-4-pyrrolidin-1-yl-2-[[(3S)-tetrahydrofuran-3-yl]amino]pyrimidine-5-carboxamide]",1600 nM
9,"NC(=O)[C@]12CC3CC(C1)[C@H](NC(=O)c1cnc(N[C@H]4CCOC4)nc1C1CCCC1)C(C3)C2 [Example 43, N-(5-carbamoyl-2-adamantyl)-4-cyclopentyl-2-[[(3S)-tetrahydrofuran-3-yl]amino]pyrimidine-5-carboxamide]",17 nM
10,"CCOc1nc(N[C@H]2CCOC2)ncc1C(=O)N[C@H]1C2CC3CC1C[C@@](O)(C3)C2 [Example 25, 4-Ethoxy-N-(5-hydroxy-2-adamantyl)-2-[[(3S)-tetrahydrofuran-3-yl]amino]pyrimidine-5-carboxamide]",37 nM
11,"O=C(N[C@H]1C2CC3CC1C[C@@](O)(C3)C2)c1cnc(N[C@@H]2CCOC2)nc1C(F)(F)F [Example 22, N-(5-hydroxy-2-adamantyl)-2-[[(3R)-oxolan-3-yl]amino]-4-(trifluoromethyl)pyrimidine-5-carboxamide]",25 nM
12,"O=C(N[C@H]1C2CC3CC1C[C@@](O)(C3)C2)c1cnc(N[C@H]2CCOC2)nc1-n1cccn1 [Example 40, N-(5-hydroxy-2-adamantyl)-4-pyrazol-1-yl-2-[[(3S)-tetrahydrofuran-3-yl]amino]pyrimidine-5-carboxamide]",2270 nM
13,"CCN1CC(Nc2ncc(C(=O)N[C@H]3C4CC5CC3C[C@@](O)(C5)C4)c(C3CCCC3)n2)CC1=O (stereo partly drawn) [Example 17, 4-cyclopentyl-2-[(1-ethyl-5-oxo-pyrrolidin-3-yl)amino]-N-(5-hydroxy-2-adamantyl)pyrimidine-5-carboxamide]",15 nM
14,"CN1C(=O)CC[C@@H]1CNc1ncc(C(=O)N[C@H]2C3CC4CC2C[C@@](O)(C4)C3)c(C2CCCC2)n1 [Example 18, 4-cyclopentyl-N-(5-hydroxy-2-adamantyl)-2-[[(2R)-1-methyl-5-oxo-pyrrolidin-2-yl]methylamino]pyrimidine-5-carboxamide]",23 nM
15,"O=C(N[C@H]1C2CC3CC1C[C@@](O)(C3)C2)c1cnc(N[C@@H]2CCOC2)nc1-n1cccn1 [Example 39, N-(5-hydroxy-2-adamantyl)-4-pyrazol-1-yl-2-[[(3R)-tetrahydrofuran-3-yl]amino]pyrimidine-5-carboxamide]",708 nM
16,"O=C(N[C@H]1C2CC3CC1C[C@@](O)(C3)C2)c1cnc(N[C@@H]2CCOC2)nc1N1CCCC1 [Example 37, N-(5-hydroxy-2-adamantyl)-4-pyrrolidin-1-yl-2-[[(3R)-tetrahydrofuran-3-yl]amino]pyrimidine-5-carboxamide]",777 nM
17,"CN(C(=O)c1cnc(N[C@@H]2CCOC2)nc1C1CCCC1)[C@H]1C2CC3CC1C[C@@](O)(C3)C2 [Example 41, 4-Cyclopentyl-N-(5-hydroxy-2-adamantyl)-N-methyl-2-[[(3R)-oxolan-3-yl]amino]pyrimidine-5-carboxamide]",46 nM
18,"O=C(N[C@H]1C2CC3CC1C[C@@](C(=O)O)(C3)C2)c1cnc(N[C@H]2CCOC2)nc1C1CCCC1 [Example 44, 4-[[4-cyclopentyl-2-[[(3S)-tetrahydrofuran-3-yl]amino]pyrimidine-5-carbonyl]amino]adamantane-1-carboxylic acid]",424 nM
19,"CN(C(=O)c1cnc(N[C@H]2CCOC2)nc1C1CCCC1)[C@H]1C2CC3CC1C[C@@](O)(C3)C2 [Example 42, 4-cyclopentyl-N-(5-hydroxy-2-adamantyl)-N-methyl-2-[[(3S)-oxolan-3-yl]amino]pyrimidine-5-carboxamide]",32 nM
20,"CC(C)c1nc(N[C@H]2CCOC2)ncc1C(=O)N[C@H]1C2CC3CC1C[C@@](O)(C3)C2 [Example 20, N-(5-hydroxy-2-adamantyl)-4-isopropyl-2-[[(3S)-tetrahydrofuran-3-yl]amino]pyrimidine-5-carboxamide]",46 nM
21,"CCCOc1nc(N[C@@H]2CCOC2)ncc1C(=O)NC1C2CC3CC1CC(O)(C3)C2 (stereo partly drawn) [Example 33, N-(5-hydroxy-2-adamantyl)-4-propoxy-2-[[(3R)-tetrahydrofuran-3-yl]amino]pyrimidine-5-carboxamide]",19 nM
